The source of these data is US20230203043A1, “NOVEL IMIDAZOPYRAZINE DERIVATIVES” (Hoffmann-La Roche Inc., priority 2020, published 2023).

Counter-ions that a name gives are not always drawn. Like-named read-outs stand apart in the source and are kept apart here.

This assay has as its system Acinetobacter baumannii ATCC17961. Description: Antimicrobial susceptibility testing: 90% growth inhibitory concentration (IC90) determination in Iso-Sensitest broth, OD600 growth. Format: cell-based. The method, then:
Antimicrobial Susceptibility Testing:
90% Growth Inhibitory Concentration (IC90) Determination
The in vitro antimicrobial activity of the compounds was determined according to the following procedure:
The assay used a 10-points Iso-Sensitest broth medium to measure quantitatively the in vitro activity of the compounds against Acinetobacter baumannii ATCC17961 or ATCC17968.
Stock compounds in DMSO were serially twofold diluted (e.g. range from 50 to 0.097 μM final concentration) in 384 wells microtiter plates and inoculated with 49 μl the bacterial suspension in Iso-Sensitest medium to have a final cell concentration of ˜5×10^(5) CFU/ml in a final volume/well of 50 ul/well. Microtiter plates were incubated at 35±2° C.
Bacterial cell growth was determined with the measurement of optical density at λ=600 nm each 20 minutes over a time course of 16 h. Growth inhibition was calculated during the logarithmic growth of the bacterial cells with determination of the concentration inhibiting 50% (IC50) and 90% (IC90) of the growth.
Table 7 provides the 90% growth inhibitory concentrations (IC90) in micromoles per liter of the compounds of present invention obtained against the strain Acinetobacter baumannii ATCC17961 and/or ATCC17968.

Setting [1] is: Acinetobacter baumannii, ATCC17961, 16 h, read-out: A. baumannii ATCC 17961 IC90 (uM), strain ATCC 17961, OD600 growth over 16 h.
The mark [2] stands for this setting: Acinetobacter baumannii, ATCC17961, 16 h, strain ATCC 17961, OD600 growth over 16 h, read-out: A. baumannii ATCC 17961 IC90.

Regarding `N#CCCn1cc(-c2cnc3c(Nc4ccc(C(=O)N5CCN(C(=O)N[C@H]6CCNC6)CC5)c(Cl)c4)nccn23)c(C(F)(F)F)n1` [Example 259, 4-[2-chloro-4-[[3-[1-(2-cyanoethyl)-3-(trifluoromethyl)pyrazol-4-yl]imidazo[1,2-a]pyrazin-8-yl]amino]benzoyl]-N-[(3S)-pyrrolidin-3-yl]piperazine-1-carboxamide formate], under setting [1], the 90% effect concentration (IC90) came to 0.463 µM.
For the compound `O=C(c1ccc(Nc2nccn3c(-c4cn(Cc5cccnn5)nc4C(F)(F)F)cnc23)cc1Cl)N1CCNCC1` [Example 135, [2-chloro-4-[[3-[1-(pyridazin-3-ylmethyl)-3-(trifluoromethyl)pyrazol-4-yl]imidazo[1,2-a]pyrazin-8-yl]amino]phenyl]-piperazin-1-ylmethanone formate], the IC90 under setting [1] is 0.933 µM.
Take `CCc1cc(Nc2nccn3c(-c4c[nH]nc4C(F)(F)F)cnc23)ccc1C(=O)NCCNC(=O)N1CC[C@@H](N)C1` [Example 517, (R)-3-amino-N-(2-(2-ethyl-4-((3-(3-(trifluoromethyl)-1H-pyrazol-4-yl)imidazo[1,2-a]pyrazin-8-yl)amino)benzamido)ethyl) pyrrolidine-1-carboxamide formate]: under setting [2], the IC90 is 0.369 µM.
Regarding `Cc1cc(Nc2nccn3c(-c4cn(CC#N)nc4C(F)(F)F)cnc23)cc(F)c1C(=O)N[C@H](C)CNC(=O)[C@H](C)N` [Example 722, N-((R)-1-((S)-2-aminopropanamido)propan-2-yl)-4-((3-(1-(cyanomethyl)-3-(trifluoromethyl)-1H-pyrazol-4-yl)imidazo[1,2-a]pyrazin-8-yl)amino)-2-fluoro-6-methylbenzamide formate], the IC90 under setting [1] turned out to be 0.458 µM.
For the compound `N#CCn1cc(-c2cnc3c(Nc4ccc(C(=O)NC56CC(N)(C5)C6)c(Cl)c4)nccn23)c(C(F)(F)F)n1` [Example 88, N-(3-amino-1-bicyclo[1.1.1]pentanyl)-2-chloro-4-[[3-[1-(cyanomethyl)-3-(trifluoromethyl)pyrazol-4-yl]imidazo[1,2-a]pyrazin-8-yl]amino]benzamide], the 90% effect concentration (IC90) under setting [2] came to 0.431 µM.
For `N#CCn1cc(-c2cnc3c(Nc4ccc(C(=O)N5CC(N)C5)c(Cl)c4)nccn23)c(C(F)(F)F)n1` [Example 100, 2-[4-[8-[4-(3-aminoazetidine-1-carbonyl)-3-chloroanilino]imidazo[1,2-a]pyrazin-3-yl]-3-(trifluoromethyl)pyrazol-1-yl]acetonitrile], the 90% effect concentration (IC90) under setting [2] was determined as 0.1 µM.
On to `O=C(c1ccc(Nc2nccn3c(-c4c[nH]nc4C(F)(F)F)cnc23)cc1Cl)N1CC2(C1)CN(C(=O)[C@@H]1CCCN1)C2` [Example 688, (S)-(2-chloro-4-((3-(3-(trifluoromethyl)-1H-pyrazol-4-yl)imidazo[1,2-a]pyrazin-8-yl)amino)phenyl)(6-prolyl-2,6-diazaspiro[3.3]heptan-2-yl)methanone], for which the IC90 under setting [2] stood at 0.349 µM.
Turning to `CCc1cc(Nc2nccn3c(-c4c[nH]nc4C(F)(F)F)cnc23)ccc1C(=O)N[C@@H](C)CN` [Example 349, N-[(2S)-1-aminopropan-2-yl]-2-ethyl-4-[[3-[3-(trifluoromethyl)-1H-pyrazol-4-yl]imidazo[1,2-a]pyrazin-8-yl]amino]benzamide formate], the 90% effect concentration (IC90) under setting [1] came to 1.63 µM.
In the case of `N#CCn1cc(-c2cnc3c(Nc4ccc(C(=O)N5CC(NC(=O)N[C@@H]6CCNC6)C5)c(Cl)c4)nccn23)c(C(F)(F)F)n1` [Example 171, 1-[1-[2-chloro-4-[[3-[1-(cyanomethyl)-3-(trifluoromethyl)pyrazol-4-yl]imidazo[1,2-a]pyrazin-8-yl]amino]benzoyl]azetidin-3-yl]-3-[(3R)-pyrrolidin-3-yl]urea], under setting [2], the IC90 worked out at 0.509 µM.
Same read-out and setting: in the case of `CCc1cc(Nc2nccn3c(-c4cn(CC(F)F)nc4C(F)(F)F)cnc23)ccc1C(=O)NCCOCCN1CCCC1` [Example 621, 4-((3-(1-(2,2-difluoroethyl)-3-(trifluoromethyl)-1H-pyrazol-4-yl)imidazo[1,2-a]pyrazin-8-yl)amino)-2-ethyl-N-(2-(2-(pyrrolidin-1-yl)ethoxy)ethyl) benzamide formate] it was 0.144 µM.
In the case of `CNC(=O)c1ccc(Nc2nccn3c(-c4cn(CCN(C)C)nc4C(F)(F)F)cnc23)cc1Cl` [Example 591, 2-chloro-4-((3-(1-(2-(dimethylamino)ethyl)-3-(trifluoromethyl)-1H-pyrazol-4-yl)imidazo[1,2-a]pyrazin-8-yl)amino)-N-methylbenzamide formate], the 90% effect concentration (IC90) under setting [1] came out at 0.483 µM.
As for `CCOCCCNC(=O)c1ccc(Nc2nccn3c(-c4cn(CC#N)nc4C(F)(F)F)cnc23)cc1CC` [Example 205, 4-[[3-[1-(cyanomethyl)-3-(trifluoromethyl)pyrazol-4-yl]imidazo[1,2-a]pyrazin-8-yl]amino]-N-(3-ethoxypropyl)-2-ethylbenzamide], the concentration for an effect of 90% (IC90) under setting [2] stood at 0.256 µM.
For `CCc1cc(Nc2nccn3c(-c4cn(CCF)nc4C(F)(F)F)cnc23)ccc1C(=O)N1CCC(CN)CC1` [Example 62, [4-(aminomethyl)piperidin-1-yl]-[2-ethyl-4-[[3-[1-(2-fluoroethyl)-3-(trifluoromethyl)pyrazol-4-yl]imidazo[1,2-a]pyrazin-8-yl]amino]phenyl] methanone], under setting [2], the IC90 was 0.242 µM.
On the same count and under the same terms, in the case of `CCc1cc(Nc2nccn3c(-c4cn(CC(F)F)nc4C(F)(F)F)cnc23)ccc1C(=O)NCCNC(=O)[C@@H]1CC[C@@H](N)C1` [Example 490, N-(2-((1R,3R)-3-aminocyclopentane-1-carboxamido)ethyl)-4-((3-(1-(2,2-difluoroethyl)-3-(trifluoromethyl)-1H-pyrazol-4-yl)imidazo[1,2-a]pyrazin-8-yl)amino)-2-ethylbenzamide formate] it was 0.196 µM.
Same read-out and setting: in the case of `CCc1cc(Nc2nccn3c(-c4c[nH]nc4C(F)(F)F)cnc23)ccc1C(=O)NCCNC(=O)[C@H]1C[C@H](N)C1` [Example 567, N-(2-((1r,3r)-3-aminocyclobutane-1-carboxamido)ethyl)-2-ethyl-4-((3-(3-(trifluoromethyl)-1H-pyrazol-4-yl)imidazo[1,2-a]pyrazin-8-yl)amino) benzamide formate] it was 0.476 µM; in that of `CNC(=O)c1ccc(Nc2nccn3c(-c4cn(Cc5ccn(CC#N)n5)nc4C(F)(F)F)cnc23)cc1Cl` [Example 590, 2-chloro-4-((3-(1-((1-(cyanomethyl)-1H-pyrazol-3-yl)methyl)-3-(trifluoromethyl)-1H-pyrazol-4-yl)imidazo [1,2-a]pyrazin-8-yl)amino)-N-methylbenzamide], 0.375 µM.
With `Cc1cc(Nc2nccn3c(-c4cn(CC#N)nc4C(F)(F)F)cnc23)ccc1C(=O)N[C@H](C)C(=O)N1CC[C@@H](N)C1` [Example 761, N-[(1R)-2-[(3R)-3-aminopyrrolidin-1-yl]-1-methyl-2-oxo-ethyl]-4-[[3-[1-(cyanomethyl)-3-(trifluoromethyl)pyrazol-4-yl]imidazo[1,2-a]pyrazin-8-yl]amino]-2-methyl-b enzamide formate], under setting [1], the IC90 is 0.721 µM.
With `CCc1cc(Nc2nccn3c(-c4c[nH]nc4C(F)(F)F)cnc23)ccc1C(=O)NCCNC(=O)[C@H]1C[C@@H](N)C1` [Example 804, N-(2-((1s,3s)-3-aminocyclobutane-1-carboxamido)ethyl)-2-ethyl-4-((3-(3-(trifluoromethyl)-1H-pyrazol-4-yl)imidazo[1,2-a]pyrazin-8-yl)amino)benzamide formate], the IC90 (strain ATCC 17961, OD600 growth over 16 h, read-out: A. baumannii ATCC 17961 IC90) was 0.511 µM.
`C#CCn1cc(-c2cnc3c(Nc4ccc(C(=O)N5CCN(C(=O)CN)CC5)c(CC)c4)nccn23)c(C(F)F)n1` [Example 793, 2-amino-1-(4-(4-((3-(3-(difluoromethyl)-1-(prop-2-yn-1-yl)-1H-pyrazol-4-yl)imidazo[1,2-a]pyrazin-8-yl)amino)-2-ethylbenzoyl)piperazin-1-yl)ethan-1-one]: the 90% effect concentration (IC90) under setting [2] stood at 1.93 µM.
Still for that read-out and setting: in the case of `Cc1cc(Nc2nccn3c(-c4c[nH]nc4C(F)(F)F)cnc23)ccc1C(=O)N1CCNCC1` [Example 480, [2-methyl-4-[[3-[3-(trifluoromethyl)-1H-pyrazol-4-yl]imidazo[1,2-a]pyrazin-8-yl]amino]phenyl]-piperazin-1-ylmethanone] it was 1.84 µM.
On the same count and under the same terms, in the case of `CCc1cc(Nc2nccn3c(-c4cn(CC(F)F)nc4C(F)(F)F)cnc23)ccc1C(=O)N1CCC(CN)CC1` [Example 58, [4-(aminomethyl)piperidin-1-yl]-[4-[[3-[1-(2,2-difluoroethyl)-3-(trifluoromethyl)pyrazol-4-yl]imidazo[1,2-a]pyrazin-8-yl]amino]-2-ethylphenyl] methanone] it was 0.209 µM; in that of `Cc1cc(Nc2nccn3c(-c4cn(CC(F)F)nc4C(F)(F)F)cnc23)cc(F)c1C(=O)N[C@H](C)CNC(=O)[C@H]1[C@@H]2CNC[C@@H]21` [Example 653, (1R,5S,6r)-N-((R)-2-(4-((3-(1-(2,2-difluoroethyl)-3-(trifluoromethyl)-1H-pyrazol-4-yl)imidazo [1,2-a]pyrazin-8-yl)amino)-2-fluoro-6-methylbenzamido)propyl)-3-azabicyclo[3.1.0]hexane-6-carboxamide], 0.259 µM.
